Data reported in patent US20240109924A1, “IP4-4,6 SUBSTITUTED DERIVATIVE COMPOUNDS” (SANIFIT THERAPEUTICS, S.A., priority 2021, published 2024).
Structures can show the parent of a compound that is named as a salt.

Test: In vitro inhibition of calcium phosphate crystallization in human plasma (spectrophotometric assay)
Format: biochemical
Settings: 0-100 μM, 1.5 mM phosphate, 12.5 mM calcium, pH 7.4, absorbance 550 nm, slope 6-24 min, read-out: Relative Potency
Experimental: The in vitro efficacy of the IP4-4,6 substituted derivatives (e.g., Compounds 1 to 53) of the invention on the inhibition of calcium phosphate crystallization in human plasma samples was evaluated according to a spectrophotometric assay previously described in the art (Ferrer M, et al., Sci Rep 2017; 7:6858, doi:10.1038/s41598-017-07203-x).
A 96-well plate was employed. Plasma was spiked (1 volume of the IP4-4,6 substituted derivatives of the invention per 19 volumes of plasma) with increasing concentrations of the derivatives in the range of 0-100 μM. Plasma was then centrifuged at 10,000 g at rt and subsequently mixed with a mixture of 5 mM hydrogen phosphate and 41.67 mM calcium to attain final concentrations of 1.5 mM phosphate and 12.5 mM calcium, respectively. All reagent solutions were filtered, and pH adjusted to 7.4.
Crystallization of calcium phosphate was monitored spectrophotometrically for 30 min at rt by measuring the increments in absorbance at 550 nm using the Biotek Powerwave XS Microplate spectrophotometer (BioTek Instruments, Inc., Winooski, VT, US). The plate was incubated at rt in an orbital shaker and absorbance measured every 3 min.
Plasma crystallization was assessed based on slope measurement in the linear range between 6 and 24 min from plots of increase in absorbance versus logarithm of time. The efficacy of different myo-inositol phosphates derivatives in preventing in vitro formation of calcium phosphate crystals was assessed in human plasma samples using the slopes obtained between 6- and 24-min. Inhibition of crystallization was measured by comparing the slopes of the control sample (blank plasma) with those of samples containing the inhibitor as shown below: […]

| EC50 | Compound |
| --- | --- |
| ≤ 5 µM | C#CCOC1C(OP(=O)(O)O)C(OCC#C)C(OP(=O)(O)O)C(OP(=O)(O)O)C1OP(=O)(O)O (centres unmarked) [Compound 53, 4,6-O-Dipropargyl-myo-inositol-1,2,3,5-tetrakis(phosphate) octasodium salt] |
| ≤ 5 µM | O=C(O)CCc1cn(CCCOC2C(OP(=O)(O)O)C(OCCCn3cc(CCC(=O)O)nn3)C(OP(=O)(O)O)C(OP(=O)(O)O)C2OP(=O)(O)O)nn1 (centres unmarked) [Compound 35, 4,6-O-bis(3-(4-(2-carboxyethyl)-1H-1,2,3-triazol-1-yl)propyl)-myo-inositol-1,2,3,5-tetrakis(phosphate) decasodium salt] |
| ≤ 5 µM | O=P(O)(O)O[C@@H]1[C@@H](OCCC2CCCC2)[C@H](OP(=O)(O)O)[C@H](OP(=O)(O)O)[C@H](OP(=O)(O)O)[C@H]1OCCC1CCCC1 [Compound 29, 4,6-O-bis(2-cyclopentylethyl)-myo-inositol-1,2,3,5-tetrakis(phosphate) octasodium salt] |
| > 10 µM | CCCCCCCCCCOC1C(OP(=O)(O)O)C(OCCCCCCCCCC)C(OP(=O)(O)O)C(OP(=O)(O)O)C1OP(=O)(O)O (centres unmarked) [Compound 2, 4,6-O-didecyl-myo-inositol-1,2,3,5-tetrakis(phosphate) octasodium salt] |
| 5 to 10 µM | COCc1cn(CCCOC2C(OP(=O)(O)O)C(OCCCn3cc(COC)nn3)C(OP(=O)(O)O)C(OP(=O)(O)O)C2OP(=O)(O)O)nn1 (centres unmarked) [Compound 36, 4,6-O-bis(3-(4-(methoxymethyl)-1H-1,2,3-triazol-1-yl)propyl)-myo-inositol-1,2,3,5-tetrakis(phosphate) octasodium salt] |
| ≤ 5 µM | O=P(O)(O)OC1C(OCCCCCn2cccn2)C(OP(=O)(O)O)C(OP(=O)(O)O)C(OP(=O)(O)O)C1OCCCCCn1cccn1 (centres unmarked) [Compound 16, 4,6-O-bis(5-(1H-pyrazol-1-yl)pentyl)-myo-inositol-1,2,3,5-tetrakis(phosphate) octasodium salt] |
| ≤ 5 µM | CCCO[C@@H]1[C@@H](OP(=O)(O)O)[C@H](OCCC)[C@@H](OP(=O)(O)O)[C@@H](OP(=O)(O)O)[C@H]1OP(=O)(O)O [Compound 4, 4,6-O-dipropyl-myo-inositol-1,2,3,5-tetrakis(phosphate) octasodium salt] |
| ≤ 5 µM | O=C(NCCCOC1C(OP(=O)(O)O)C(OCCCNC(=O)NC2CCCC2)C(OP(=O)(O)O)C(OP(=O)(O)O)C1OP(=O)(O)O)NC1CCCC1 (centres unmarked) [Compound 47, 4,6-O-bis(3-(3-cyclopentylureido)propyl)-myo-inositol-1,2,3,5-tetrakis(phosphate) octasodium salt] |
| > 10 µM | O=C(O)CCCCCCCCCCOC1C(OP(=O)(O)O)C(OCCCCCCCCCCC(=O)O)C(OP(=O)(O)O)C(OP(=O)(O)O)C1OP(=O)(O)O (centres unmarked) [Compound 19, 4,6-O-bis(10-carboxydecyl)-myo-inositol-1,2,3,5-tetrakis(phosphate) decasodium salt] |
| 5 to 10 µM | COCCCCCCn1cc(COC2C(OP(=O)(O)O)C(OCc3cn(CCCCCCOC)nn3)C(OP(=O)(O)O)C(OP(=O)(O)O)C2OP(=O)(O)O)nn1 (centres unmarked) [Compound 33, 4,6-O-bis((1-(6-methoxyhexyl)-1H-1,2,3-triazol-4-yl)methyl)-myo-inositol-1,2,3,5-tetrakis(phosphate) octasodium salt] |
| 5 to 10 µM | NCCCOC1C(OP(=O)(O)O)C(OCCCN)C(OP(=O)(O)O)C(OP(=O)(O)O)C1OP(=O)(O)O (centres unmarked) [Compound 13, 4,6-O-bis(3-aminopropyl)-myo-inositol-1,2,3,5-tetrakis(phosphate) octasodium salt] |
| > 10 µM | COCCCCCCCOC1C(OP(=O)(O)O)C(OCCCCCCCOC)C(OP(=O)(O)O)C(OP(=O)(O)O)C1OP(=O)(O)O (centres unmarked) [Compound 11, 4,6-O-bis(7-methoxyheptyl)-myo-inositol-1,2,3,5-tetrakis(phosphate) octasodium salt] |
| ≤ 5 µM | O=P(O)(O)OC1C(OCCC2CC2)C(OP(=O)(O)O)C(OP(=O)(O)O)C(OP(=O)(O)O)C1OCCC1CC1 (centres unmarked) [Compound 28, 4,6-O-bis(2-cyclopropylethyl)-myo-inositol-1,2,3,5-tetrakis(phosphate) octasodium salt] |
| ≤ 5 µM | NC(=O)CCCOC1C(OP(=O)(O)O)C(OCCCC(N)=O)C(OP(=O)(O)O)C(OP(=O)(O)O)C1OP(=O)(O)O (centres unmarked) [Compound 26, 4,6-O-bis(4-amino-4-oxobutyl)-myo-inositol-1,2,3,5-tetrakis(phosphate) octasodium salt] |
| ≤ 5 µM | CCCCCCCOC1C(OP(=O)(O)O)C(OCCCCCCC)C(OP(=O)(O)O)C(OP(=O)(O)O)C1OP(=O)(O)O (centres unmarked) [Compound 5, 4,6-O-diheptyl-myo-inositol-1,2,3,5-tetrakis(phosphate) octasodium salt] |
| 5 to 10 µM | COCc1cn(CCCCOC2C(OP(=O)(O)O)C(OCCCCn3cc(COC)nn3)C(OP(=O)(O)O)C(OP(=O)(O)O)C2OP(=O)(O)O)nn1 (centres unmarked) [Compound 37, 4,6-O-bis(4-(4-(methoxymethyl)-1H-1,2,3-triazol-1-yl)butyl)-myo-inositol-1,2,3,5-tetrakis(phosphate) octasodium salt] |
| ≤ 5 µM | COCCCOC1C(OP(=O)(O)O)C(OCCCOC)C(OP(=O)(O)O)C(OP(=O)(O)O)C1OP(=O)(O)O (centres unmarked) [Compound 10, 4,6-O-bis(3-methoxypropyl)-myo-inositol-1,2,3,5-tetrakis(phosphate) octasodium salt] |
| ≤ 5 µM | O=C(O)CCCC(=O)NCCCOC1C(OP(=O)(O)O)C(OCCCNC(=O)CCCC(=O)O)C(OP(=O)(O)O)C(OP(=O)(O)O)C1OP(=O)(O)O (centres unmarked) [Compound 45, 4,6-O-bis((3-(4-carboxybutanamido)propyl))-myo-inositol-1,2,3,5-tetrakis(phosphate) decasodium salt] |
| 5 to 10 µM | O=C(NCCCOC1C(OP(=O)(O)O)C(OCCCNC(=O)Nc2ccccc2)C(OP(=O)(O)O)C(OP(=O)(O)O)C1OP(=O)(O)O)Nc1ccccc1 (centres unmarked) [Compound 46, 4,6-O-bis(3-(3-phenylureido)propyl)-myo-inositol-1,2,3,5-tetrakis(phosphate) octasodium salt] |

| Compound | EC50 |
| --- | --- |
| CCCCCCCCCCCCCCO[C@@H]1[C@@H](OP(=O)(O)O)[C@H](OCCCCCCCCCCCCCC)[C@@H](OP(=O)(O)O)[C@@H](OP(=O)(O)O)[C@H]1OP(=O)(O)O [Compound 3, 4,6-O-di(tetradecyl)-myo-inositol-1,2,3,5-tetrakis(phosphate) octasodium salt] | ≤ 5 µM |
| CC(=O)NCCCCCO[C@@H]1[C@@H](OP(=O)(O)O)[C@H](OCCCCCNC(C)=O)[C@@H](OP(=O)(O)O)[C@@H](OP(=O)(O)O)[C@H]1OP(=O)(O)O [Compound 27, 4,6-O-bis(5-acetamidopentyl)-myo-inositol-1,2,3,5-tetrakis(phosphate) octasodium salt] | ≤ 5 µM |
| CCCCCOC1C(OP(O)(O)=S)C(OCCCCC)C(OP(O)(O)=S)C(OP(O)(O)=S)C1OP(O)(O)=S (centres unmarked) [Compound 50, 4,6-O-dipentyl-myo-inositol-1,2,3,5-tetrakis(thiophosphate) octasodium salt] | > 10 µM |
| CC(=O)N1CCN(CCOC2C(OP(=O)(O)O)C(OCCN3CCN(C(C)=O)CC3)C(OP(=O)(O)O)C(OP(=O)(O)O)C2OP(=O)(O)O)CC1 (centres unmarked) [Compound 34, 4,6-O-bis(2-(4-acetylpiperazin-1-yl)ethyl)-myo-inositol-1,2,3,5-tetrakis(phosphate) octasodium salt] | 5 to 10 µM |
